# Data as given in a polymer gas permeability compilation.
Compound,CH4 permeability,CO2 permeability,N2 permeability,H2 permeability,O2 permeability
*c1ccc(Sc2ccc(N3C(=O)c4ccc(-c5ccc6c(c5)C(=O)N(*)C6=O)cc4C3=O)cc2)cc1 (repeat unit),0.0164 Barrer,0.774 Barrer,0.022 Barrer,,
*c1ccc(Oc2ccc(C(*)(c3ccccc3)C(F)(F)F)cc2)cc1 (repeat unit),0.65 Barrer,17 Barrer,0.69 Barrer,28 Barrer,3.5 Barrer
*Oc1ccc(C(C)(C)c2ccc(OC(=O)c3cccc(C(*)=O)c3)c(C)c2)cc1C (repeat unit),0.0459 Barrer,1.24 Barrer,0.0628 Barrer,7.79 Barrer,0.4 Barrer
*CC(*)O (repeat unit),,1.2e-06 Barrer,,,7e-07 Barrer
*c1c(C)c(C)c(N2C(=O)c3ccc(Oc4c(C)cccc4Oc4ccc5c(c4)C(=O)N(*)C5=O)cc3C2=O)c(C)c1C (repeat unit),0.7 Barrer,27 Barrer,0.83 Barrer,51 Barrer,4.8 Barrer
*Oc1ccc(C(=O)c2ccc(Oc3ccc(C(c4ccc(*)cc4)(C(F)(F)F)C(F)(F)F)cc3)cc2)c2ccccc12 (repeat unit),0.21 Barrer,6.04 Barrer,0.325 Barrer,,1.85 Barrer
*Oc1ccc(C(C)(C)c2ccc(Oc3ccc(S(=O)(=O)c4ccc(*)c5ccccc45)cc3)cc2)cc1 (repeat unit),0.08 Barrer,4.7 Barrer,0.15 Barrer,,1.2 Barrer
*Oc1ccc(S(=O)(=O)c2ccc(Oc3ccc(Cc4ccc(*)cc4)cc3)cc2)cc1 (repeat unit),0.188 Barrer,4.5 Barrer,0.2 Barrer,,1.1 Barrer
*c1ccc(*)c(C(=O)c2ccccc2)c1 (repeat unit),0.36 Barrer,14.2 Barrer,0.4 Barrer,27.4 Barrer,2.99 Barrer
*Nc1ccc(*)cc1OCC (repeat unit),,2.22 Barrer,0.107 Barrer,8.1 Barrer,0.62 Barrer
*C(=C(*)c1ccc2c(c1)C1(CC1)c1ccccc1-2)c1ccc([Si](C)(C)C)cc1 (repeat unit),1500 Barrer,4100 Barrer,540 Barrer,1900 Barrer,1000 Barrer
*c1ccc(Cc2ccc(N3C(=O)c4ccc(C(c5ccc6c(c5)C(=O)N(*)C6=O)(C(F)(F)F)C(F)(F)F)cc4C3=O)cc2)cc1 (repeat unit),0.344 Barrer,15.2 Barrer,0.686 Barrer,44.7 Barrer,3.88 Barrer
*C/C=C\C* (repeat unit),,138 Barrer,15.8 Barrer,41.9 Barrer,19 Barrer
*c1ccc(-c2cc(C)c(-c3ccc(*)c(C)c3)cc2C)cc1C (repeat unit),1.1 Barrer,,1.6 Barrer,51 Barrer,8.6 Barrer
*CC(*)(C)C(=O)OCCOCCOCC (repeat unit),11.4 Barrer,133 Barrer,3.6 Barrer,,11.4 Barrer
*C(=C(*)c1ccc2c(c1)C1(CC1)c1ccccc1-2)c1ccccc1 (repeat unit),810 Barrer,3200 Barrer,400 Barrer,1400 Barrer,660 Barrer
*c1ccc(Oc2ccc3ccccc3c2-c2c(Oc3ccc(N4C(=O)c5ccc(C(c6ccc7c(c6)C(=O)N(*)C7=O)(C(F)(F)F)C(F)(F)F)cc5C4=O)cc3C)ccc3ccccc23)c(C)c1 (repeat unit),0.28 Barrer,18.4 Barrer,0.53 Barrer,26.2 Barrer,3.35 Barrer
*c1c(C)cc(-c2cc(C)c(N3C(=O)c4cc5c(cc4C3=O)C3(C)c4ccccc4C5(C)c4cc5c(cc43)C(=O)N(*)C5=O)c3ccccc23)c2ccccc12 (repeat unit),187 Barrer,3350 Barrer,158 Barrer,2740 Barrer,696 Barrer
*C=C(*)C(C)(C)C (repeat unit),85 Barrer,560 Barrer,43 Barrer,,130 Barrer
*CC=C(C*)[Si](C)(C)OC(C)C (repeat unit),3.1 Barrer,23.2 Barrer,1.5 Barrer,,6 Barrer
*OC1OC(COCC)C(*)C(OCC)C1OCC (repeat unit),9.2 Barrer,91 Barrer,4.3 Barrer,68 Barrer,15 Barrer
